Measured values taken from article PMC3878827, “Synthesis and biological characterisation of ^18F-SIG343 and ^18F-SIG353, novel and high selectivity σ2 radiotracers, for tumour imaging properties” (EJNMMI Research, 2013).
“And” between values parts separate entries of the source, which are not always exact repeats. Equal entries are not always repeated.

How the values were obtained:
[1] = tested on: A375 (human amelanotic melanoma) cells; experiment: Cell uptake studies in A375 cells; format: cell-based
Experimental: A375 (human amelanotic melanoma) cells were purchased from American Type Culture Collection (Manassas, VA, USA) and cultured in RPMI-1640 medium (Sigma-Aldrich, St. Louis, MO, USA) supplemented with 10% foetal calf serum (Invitrogen, CA, USA) and 2 mM L-glutamine (Sigma). Cells were maintained in 175 cm^2 flasks in at 37°C in 5% CO2:95% atmosphere humidified incubator and grown to sub-confluent monolayers before being detached using trypsin for use in animal models.
In 24-well culture plates, 2.5 × 10^5 cells were seeded in complete medium and left to attach overnight. The following day, the number of cells per well was counted in triplicate. Before incubation with the radiotracer, the growth media was removed and the cells were washed once with warm PBS to remove all traces of growth media. ^18F-SIG343 or ^18F-SIG353 was formulated in warm PBS containing 0.1% Tween-80. Freshly prepared radiotracer (0.37 MBq in 500 μL) was added and the cells were incubated at 37°C for 2, 15, 30, 60 and 120 min. Uptake was terminated by removing the tracer solution and washing cells with ice-cold PBS. Subsequently, the cells were lysed with 500 μL of 0.2 N NaOH. The radioactivity in the cell lysate was measured with a Wallac 1480 γ-counter (PerkinElmer, MA, USA). The results were expressed as percentage of applied dose per 1 × 10^5 cells. All activities were corrected for decay. Optimal uptake time will be selected for inhibition cell uptake studies.

[2] = Metabolite studies (radio-TLC and radio-HPLC) in A375 tumour-bearing mice; format: in vivo; details: i.v., mean ± SD, n = 3
Experimental: The amount of intact ^18F-SIG343 and ^18F-SIG353 in the plasma, urine, tumour and brain cortex was quantified by thin layer chromatography (TLC) and radio-HPLC analysis. Mice were injected with 20 MBq of the radiotracer in 100 μL of saline. Mice were sacrificed 15, 60 and 120 min post injection of radiotracer. Whole organ samples of brain cortex and tumour samples (10 to 60 mg, minced) were added to unlabelled SIG343 or SIG353 (5 μL; 1 mg/mL), KF (5 μL; 1 mg/mL), MeCN (0.3 mL) and water (0.2 mL). Samples were exposed to an ultrasonic probe (Ultrasonic processor, Misonix Inc., Farmingdale, NY, USA) for 2 min before being centrifuged (5,000 rpm, 5 min). Plasma (50 μL) or urine (10 μL) samples were added to unlabelled SIG343 or SIG353, KF and 0.5 mL MeCN. Plasma samples were centrifuged (Heraeus Biofuge PrimoR, Thermo Fisher Scientific, Hudson, NH, USA; 5,000 rpm, 5 min), and the supernatant was removed and the radioactivity of the precipitated pellets was measured using a gamma counter to determine the extraction efficiency. If necessary, multiple extractions were performed to ensure maximum recovery of the radioactivity. An appropriate amount of the supernatant, based on the activity level (cpm), was collected (approximately 100 μL), diluted with water (up to 1.5 mL) for HPLC analysis or evaporated to dryness under vacuum for TLC analysis.
The TLC sample was reconstituted in methanol (25 to 50 μL) and mixed before being applied to the concentrating zone of the silica TLC plate. In a separate lane, the corresponding ^18F-labelled and ^19F-standard was also spotted. The TLC solvent systems of EtOAc/MeOH (70:30) were utilised for ^18F-SIG343 (rf 0.50) and ^18F-SIG353 (rf 0.55). The UV of the standard was identified using a UV lamp, while the movement and integration of the radioactive spots were visualised and measured using a phosphorimager (BAS 2500 Phosphorimager, Fujifilm, Tokyo, Japan) with Fujifilm Multigage 3.0 software. The intact radiotracer was identified as the radioactive spot containing the identical rf value to the corresponding ^19F-standard seen under the UV lamp. The integration of the active spot in relation to all the activity in the TLC lane gave the percentage of intact radiotracer.
Radio-HPLC analysis was performed following the method of Hilton et al.. A pre-column (Waters Oasis HLB, 25 μm, 20 × 3.9 mm) and a reversed phase HPLC column (Phenomenex Bondclone C18, 10 μm, 250 × 4.6 mm or Phenomenex Synergi Max-RP 80A C18, 4 μm, 250 × 4.6 mm) in series, with a switching valve between columns was utilised. The pre-column was washed with 1% acetonitrile in water for 3 min at 1.5 mL/min and then the solvent direction was switched to include the HPLC column. Both columns in series were then eluted over 10 min. The radioactivity peak corresponding to the authentic radiotracer was compared to the total activity registered in the radiochromatogram to give the fraction of unchanged radiotracer in the sample.

σ2 receptor = molecular target: T1, σ2 receptor (Mus musculus, UniProt Q8VD00); experiment: In vivo blocking studies in A375 tumour-bearing mice; parameters: species or system Balb/C nude mice; details: unlabelled SIG353-treated group, 1 mg/kg, 30 min p.i.
T1 construct: from tissue; host or cells: organs of Balb/C nude mice in vivo; tumour xenograft of A375 human amelanotic melanoma cells
T1 sequence (Q8VD00 1-176): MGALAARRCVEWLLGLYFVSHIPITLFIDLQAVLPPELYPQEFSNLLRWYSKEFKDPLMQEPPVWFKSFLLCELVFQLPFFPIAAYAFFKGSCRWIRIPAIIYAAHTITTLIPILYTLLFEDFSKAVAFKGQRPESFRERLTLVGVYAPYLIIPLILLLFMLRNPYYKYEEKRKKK
Experimental: Female Balb/C nude mice aged 5 to 6 weeks old were obtained from the Animal Resource Centre (Perth, Australia). The animals were kept at a constant temperature of 22°C ± 2°C on a 12/12 h light/dark cycle with lights on at 09:00 am. Food and water were freely available. After a week of acclimatisation, mice were injected subcutaneously in the left flank with 1 × 10^6 A375 human amelanotic melanoma cells, in 100 μL of Ca^2+/Mg^2+-free phosphate buffered saline. The procedure was performed without anaesthetic. For in vivo studies, A375 tumour-bearing mice were used 26 days after tumour inoculation.
Blocking studies were performed to investigate the specific uptake of the tracer via σ2 receptor mechanism. […] Control mice received saline only. Five minutes after injection of the blocking drug, ^18F-SIG343 or ^18F-SIG353 (1 MBq/100 μL of saline) was injected, and groups of mice (n = 5) were sacrificed 30 min post injection of the radiotracer. Organs were processed as described for the biodistribution study. Radioactivity concentrations in the organs in the treatment groups were compared to that measured in control mice.

[3] = declined after 60 min (up to 120 min)

## COc1cc2c(cc1OC)CN(CCCCN1C(=O)c3ccc([18F])cc3C1=O)CC2 [^18F-SIG343]
[1]; after 2 min, 37°C
  Cell uptake, percentage of applied dose per 1 × 10^5 cells: approximately 2%
[1]; between 15 and 60 min (peak/plateau)
  Cell uptake, percentage of applied dose per 1 × 10^5 cells: 2%
[1]; [3]
  Cell uptake, percentage of applied dose per 1 × 10^5 cells: 1.6%
[2]; 15 min post injection
  Unchanged form, Cortex: 87 ± 3.2%
  Unchanged form, Plasma: 49 ± 7.5%
  Unchanged form, Tumour: 79 ± 4.6%
  Unchanged form, Urine: 13% and 13 ± 1.2%
[2]; 60 min post injection
  Unchanged form, Cortex: 83 ± 0.8%
  Unchanged form, Plasma: 23 ± 3.8%
  Unchanged form, Tumour: 85 ± 3.1%
  Unchanged form, Urine: 15 ± 4.3%
[2]; 120 min post injection
  Unchanged form, Plasma: 16 ± 2.8%
  Unchanged form, Urine: 11 ± 5.4%

## COc1cc2c(cc1OC)CN(CCCCCN1C(=O)c3ccc([18F])cc3C1=O)CC2 [^18F-SIG353]
[1]; after 2 min, 37°C
  Cell uptake, percentage of applied dose per 1 × 10^5 cells: approximately 2%
[1]; [3]
  Cell uptake, percentage of applied dose per 1 × 10^5 cells: 2.3%
σ2 receptor
  Increase (↑) of radiotracer uptake in pancreas versus control: 37%
[2]; 15 min post injection
  Unchanged form, Cortex: 85%
  Unchanged form, Plasma: 60 ± 3.0%
  Unchanged form, Tumour: 81 ± 4.5%
  Unchanged form, Urine: 5% and 5 ± 1.3%
[2]; 60 min post injection
  Unchanged form, Cortex: 87%
  Unchanged form, Plasma: 27 ± 5.1%
  Unchanged form, Tumour: 85 ± 2.4%
  Unchanged form, Urine: 4 ± 0.4%
[2]; 120 min post injection
  Unchanged form, Plasma: 17 ± 2.9%
  Unchanged form, Tumour: 65% and 65 ± 8.9%
  Unchanged form, Urine: 5 ± 1.2%
